A melting point compilation (Tetko et al.; mined from patent text by program, amines drawn as free bases though some values may be those of a salt)

| Structure (SMILES) | melting point [°C] |
| --- | --- |
| CCOC(=O)c1cc(NCc2ccccc2)c(Sc2ccccc2C)c(S(N)(=O)=O)c1 | 166 to 167 |
| O=C1NCC(Cc2cccc(Cl)c2)O1 (stereo not given) | 113 to 114 |
| CC(C)(C)NC(=O)Nc1nc2nc(N)ncc2cc1-c1ccncc1 | > 350 |
| CCOC(=O)c1cn(CCc2ccc(OC)cc2)c2cc(C3CC3)nn2c1=O | 160 to 165 |
| O=C(O)Cc1ccc(CNC(=O)C2Cc3ccccc3N2S(=O)(=O)c2ccc(-c3cccc(Cl)c3)cc2)cc1 (stereo not given) | 120 |
| CSc1ncc(CO)c(N)n1 | 124 to 127 |
| Nc1cc(Cl)c(N2CCC(N3CCOCC3)CC2)c(Cl)c1 | 144 to 146 |
| CCOc1cc2ncc(C#N)c(Nc3ccc4c(c3)C(=O)OC4)c2cc1OCC | 280 to 284 |
| CN1CCN(Cc2nnc(-c3ccccc3)cc2-c2cccc([N+](=O)[O-])c2)CC1 | 157 to 159 |
| Cc1cc(-n2nc(C(F)(F)F)cc2-c2ccc(-c3ccco3)cc2)ccc1S(N)(=O)=O | 137 |
| COC1CCC(NC(=O)C2CC3c4cccc5c4c(cn5C(C)C)CC3N(C)C2)CC1 (stereo not given) | > 230 |
| Cc1ccnc(Cl)c1C(N)=O | 168 to 170 |
| O=c1nc(-c2ccc(F)cc2)c2ccccc2[nH]1 | 294 to 298 |
| CCCCCCCCCCNC(=O)c1cc(C(=O)NCCCCCCCCCC)cc(N(CC(=O)O)CC(=O)O)c1 | 164 to 167 |
| Cc1ccc(S(=O)(=O)NC(=O)C(C)(NC=O)C(C)C)cc1 (stereo not given) | 131 to 135 |
| CCNc1cc2ccc(OC)c(OC)c2c2cc(C)ccc12 | 100 to 102 |
| C=C1CCCC2CCC3C(CCC4(C)C3C(C#N)C35OCCOC43OCCO5)C12C (stereo not given) | 229 |
| O=C(O)c1c(OCc2cccc(OCc3ccc4ccccc4n3)c2)cccc1C(F)(F)F | 184 to 185 |
| O=c1[nH]c(-c2cc(C(F)(F)F)cc(C(F)(F)F)c2)nn1-c1cc(Cl)ccc1O | 235 to 236 |
| N#Cc1ccc2[nH]cc(Cc3cccnc3)c2c1 | 125 |

| Structure (SMILES) | melting point [°C] |
| --- | --- |
| CNC(=S)NCCN1CCCCC1 | 166 |
| Cc1ccc(-c2c(N)oc3c(C(C)(C)C)cc(C(C)(C)C)cc23)cc1C | 128 to 130 |
| COc1ccc(C(O)c2ccccc2)cc1OC1CCCC1 (stereo not given) | 82.5 to 83 |
| CC1=C(C(=O)O)N2C(=O)C(=NSc3ccc(C)cc3)C2SC1 (stereo not given) | 186 to 187 |
| CCOc1ccc2c(c1)c(CC(C)NC(=O)OC(C)(C)C)c1n2CCC1 (stereo not given) | 89 to 90 |
| c1ccc(CN2CCC3(CC2)SC(c2ccccc2)c2ccccc23)cc1 (stereo not given) | 144 to 145 |
| O=C1CC(c2ccccc2)Cc2[nH]ccc21 (stereo not given) | 187 to 189 |
| C=Cc1ccc(Nc2nc(Cl)nc(Cl)c2Cl)cc1 | 112 to 114 |
| CN1CCNC(c2ccccc2)c2cc([N+](=O)[O-])ccc21 (stereo not given) | 96 to 99 |
| CS(=O)c1ccc(C(=O)Cc2ccccc2)cc1 (stereo not given) | 104 |
| CC(=O)Nc1cc2c(cc1[N+](=O)[O-])OC(C)(C)[C@@H](O)[C@@H]2N1CCCC1=O (relative stereo) | 240 to 241 |
| Cc1oc(-c2ccccc2)nc1CCOc1ccc(CC(C(=O)O)c2nc(-c3ccccc3)oc2C)cc1 (stereo not given) | 120 |
| CCc1cccc(NC(=O)c2ccn3c2CSC3c2cccnc2)n1 (stereo not given) | 150 |
| Cc1ccc(-c2c(C(=O)O)n(CCCBr)c(=O)c3ncccc23)cc1 | 194 to 196 |
| O=C(c1ccc(-c2ccccc2)s1)c1ccc(Br)cc1Cl | 132 to 134 |
| Cn1nc(-c2ccccc2)nc1-c1ccccn1 | 106 to 108 |
| O=c1cc(N2CCOCC2)oc2ccc(-c3ccccc3)cc12 | 218 to 220 |
| CCC(=O)N1C(=O)C(=O)c2cc(Cl)ccc21 | 160 to 162 |
| BrCCCCCCCCCCn1c2ccccc2c2ccccc21 | 38 to 40 |
| CC12CCC3c4cc([N+](=O)[O-])c(O)cc4CCC3C1CCC2=O (stereo not given) | 178 to 180 |
